For data set [1], the species on record is Homo sapiens. Briefly: (§1) Selective toxicity index between parasite and cells of host-animals, human epidermoid carcinoma KB 3-1. In kind it is organism-based.
The test system of data set [2] is KB 3-1. Briefly: Compound was tested for cytotoxicity against human epidermoid carcinoma KB 3-1. The format is functional, cell-based.
Data set [3] relates to Plasmodium falciparum. Put plainly: Antimalarial activity against Plasmodium falciparum. In kind it is functional, organism-based.
A short description of data set [4]: as §1. The format is organism-based. Conditions: KB 3-1 human epidermoid carcinoma cells.

Broadly, the IC50 is the concentration that gives 50% inhibition. The low end stands for greater potency, the high end for weaker potency. For `CCCCCC1(OC)CCC(CC(=O)OC)OO1` (single isomer, unassigned; (+)), in data set [1], the Ratio amounted to 350. Further, the IC50 in data set [2] (kb 3-1) was 77 µM; in data set [3], 220 nM.
Consider `CCCCC[C@]1(OC)CC[C@@H](CC(=O)OC)OO1`, for which the selectivity ratio in data set [4] is 350. Also, the 50% inhibitory concentration (IC50) in data set [2] (Homo sapiens, KB 3-1) was found to be 53 µM; in data set [3] (Plasmodium falciparum), 150 nM.
The matching figures for `CCCCCC1(OC)CCC(CC(=O)OC)OO1` (stereo in doubt; 5): 360, 43 µM and 120 nM.
For `CCCCC[C@]1(OC)CC[C@H](CC(=O)OC)OO1` the same measures were 150, 23 µM and 150 nM.
For `CCCCCCCCCCCCCCCC[C@@]1(OC)C=C[C@@H](CC(=O)OC)OO1` [CHONDRILLIN] the same measures were < 2.6, 0.63 µM and > 240 nM.
Regarding `CCCCCCCCC[C@]1(OC)CC[C@@H](CC(=O)OC)OO1`, the selectivity ratio in data set [4] came to 26. For the same compound, the IC50 in data set [2] (Homo sapiens, KB 3-1) stood at 4.4 µM; in data set [3] (Plasmodium falciparum) it was 170 nM.
Consider `CCCCCCCCC[C@]1(OC)CC[C@H](CC(=O)OC)OO1` (relative stereo), for which the selectivity ratio in data set [4] was found to be 8. Moreover, the concentration for half-maximal inhibition (IC50) in data set [2] (Homo sapiens, KB 3-1) was determined as 2.2 µM; in data set [3] (Plasmodium falciparum), 260 nM.
With `CCCCCC1(OC)CCC(CC(=O)OC)OO1` (single isomer, unassigned; (-)), the Ratio in data set [1] was determined as 370. Moreover, the IC50 in data set [2] (kb 3-1) was 82 µM.
`CC/C=C/C=C/CC[C@]1(OC)CC[C@@H](C(C)C(=O)OC)OO1` (single isomer, unassigned): the selectivity ratio in data set [4] was 140. The IC50 in data set [2] (Homo sapiens, KB 3-1) was 21 µM; in data set [3] (Plasmodium falciparum), 150 nM.
Consider `CC/C=C/C=C/CC[C@]1(OC)CC[C@H]([C@@H](C)C(=O)OC)OO1`, for which, in data set [4], the selectivity ratio amounted to 230. The 50% inhibitory concentration (IC50) stood at 28 µM in data set [2] (Homo sapiens, KB 3-1) and 120 nM in data set [3] (Plasmodium falciparum).
On to `COC(=O)CC1CCC(C)(OC)OO1` (centres undefined), for which the IC50 was > 0.49 µM in data set [2] (Homo sapiens, KB 3-1) and > 2400 nM in data set [3] (Plasmodium falciparum).
Consider `CCCCCCCCCC1(OC)CCC(CC(=O)OC)OO1` (centres undefined), for which the selectivity ratio in data set [4] is 31. Moreover, the IC50 in data set [2] (Homo sapiens, KB 3-1) amounted to 4.4 µM; in data set [3] (Plasmodium falciparum) it was 140 nM.
